Reference: patent US20240279278A1, “NMU RECEPTOR 2 AGONISTS” (Boehringer Ingelheim International GmbH, priority 2023, published 2024)
Residues, ends and D or L forms follow the SMILES beside them.

How the values were obtained:
[1] = molecular target: T1, human NMUR2 receptor (Homo sapiens, UniProt Q9GZQ4); assay: IP1 Gq HTRF assay, activation of human NMUR2 in buffer; format: cell-based; set-up: expressed in transfected cells; host or cells: CHO-K1; conditions: for EC50: CHO-K1 cells expressing human NMUR2, stimulation buffer with 0.1% BSA, read-out: EC50 (hNMUR2) buffer; for EC50 (hNMUR1)/EC50 (hNMUR2): selectivity for NMUR2 over NMUR1 from IP1 assay in buffer (Example 3)
T1 sequence (Q9GZQ4 whole entry): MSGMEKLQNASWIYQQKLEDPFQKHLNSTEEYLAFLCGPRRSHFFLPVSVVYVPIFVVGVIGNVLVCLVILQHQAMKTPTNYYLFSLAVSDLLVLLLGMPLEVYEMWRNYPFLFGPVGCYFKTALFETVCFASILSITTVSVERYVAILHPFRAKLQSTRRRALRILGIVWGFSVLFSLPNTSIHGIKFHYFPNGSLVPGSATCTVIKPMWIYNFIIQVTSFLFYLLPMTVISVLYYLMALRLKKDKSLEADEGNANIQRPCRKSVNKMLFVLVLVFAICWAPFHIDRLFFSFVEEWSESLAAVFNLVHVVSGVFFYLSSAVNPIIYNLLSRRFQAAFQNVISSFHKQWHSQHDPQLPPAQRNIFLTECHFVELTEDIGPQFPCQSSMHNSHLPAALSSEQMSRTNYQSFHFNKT
Procedure, shortened: (§1)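 IP-One HTRF competition (665/620 nm ratio) read after 1 h agonist exposure at 37 °C in pH 7.4 HEPES/HBSS stimulation buffer containing 50 mM LiCl, 0.1% BSA, 1% DMSO. Cells: CHO-K1 stably expressing human NMUR2 or NMUR1. EC50 by 4-parameter nonlinear regression of 8-point curves.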

[2] = molecular target: T1, human NMUR2 receptor; assay: IP1 Gq HTRF assay, activation of human NMUR2 in human plasma; format: cell-based; set-up: expressed in transfected cells; host or cells: CHO-K1; conditions: CHO-K1 cells expressing human NMUR2, 100% human plasma; read-out: EC50 (hNMUR2) human plasma
Procedure, shortened: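 EC50 obtained via 4-parameter sigmoidal regression of HTRF IP-One signal (665 nm/620 nm), which falls as intracellular IP1 rises. Stimulation: 1 h, 37° C, peptides in human plasma plus 50 mM LiCl, 1% DMSO final, on NMUR2-expressing CHO-K1 cells, 8 concentrations.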

[3] = in vivo; set-up: species or system NMRI mice; conditions: male, NMRI, mouse, iv
Experimental: Example 5: Pharmacokinetics Intravenous (iv) PK in Mouse Pharmacokinetic parameters of the test compounds were determined after intravenous administration to Naval Medical Research Institute (NMRI) mice. Male NMRI mice were obtained either from Charles River (Germany) or from Janvier (France) weighing approximately 30 g to 40 g. Mice were housed in standard cages with light cycle of 12-hour dark and 12-hour light. Standardized food and water were offered ad libitum to the animals during the whole experimental period. The respective peptide was dissolved in 50 mM phosphate buffer (pH 7.4) containing 3.5% mannitol. Intravenous doses of 30 nmol/kg were given via a tail vein. Serial blood samples were collected from the vena saphena into tubes containing EDTA as anticoagulant at different time points up to 48 hours post dosing. After centrifugation for approximately 5 minutes, plasma samples were transferred to 96-well Polymerase Chain Reaction (PCR) plates, immediately frozen and kept at approximately −20° C. until analyzed for plasma concentration by liquid chromatography mass spectrometry (LC-MS/MS). Individual plasma concentration-time profiles were analyzed by a non-compartmental approach, and the resulting pharmacokinetic parameters were determined.

[4] = molecular target: T2, human NMUR1 receptor (Homo sapiens, UniProt Q9HB89); assay: IP1 Gq HTRF assay, activation of human NMUR1 in buffer; format: cell-based; conditions: CHO-K1 cells expressing human NMUR1, stimulation buffer with 0.1% BSA; read-out: EC50 (hNMUR1) buffer
T2 construct: expressed in transfected cells; host or cells: CHO-K1
T2 sequence (Q9HB89 1-426): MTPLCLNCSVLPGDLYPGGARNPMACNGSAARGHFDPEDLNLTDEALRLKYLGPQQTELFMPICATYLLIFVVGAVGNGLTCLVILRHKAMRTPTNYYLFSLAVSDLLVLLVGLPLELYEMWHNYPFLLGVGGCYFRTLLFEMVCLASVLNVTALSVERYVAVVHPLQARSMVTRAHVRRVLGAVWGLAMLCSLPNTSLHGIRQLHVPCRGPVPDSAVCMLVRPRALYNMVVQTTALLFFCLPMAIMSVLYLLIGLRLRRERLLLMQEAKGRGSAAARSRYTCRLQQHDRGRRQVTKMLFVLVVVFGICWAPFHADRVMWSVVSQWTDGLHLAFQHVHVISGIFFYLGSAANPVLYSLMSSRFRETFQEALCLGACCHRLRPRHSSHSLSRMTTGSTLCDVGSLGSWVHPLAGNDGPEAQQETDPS
Procedure, shortened: as §1

SMILES	EC50 [1] [nM]	EC50 (hNMUR1)/EC50 (hNMUR2) [1]	EC50 [2] [nM]	MRT [3] [h]	MRT ([3]; 30 nmol/kg) [h]	EC50 [4] [nM]
CCCC[C@H](NC(=O)[C@H](CC(C)C)N(C)C(=O)[C@H](Cc1ccccc1)NC(=O)[C@H](Cc1ccc(O)cc1)NC(=O)CN1CCN(CCNC(=O)CN(C)C(=O)CN(C)C(=O)CN(C)C(=O)CN(C)C(=O)CN(C)C(=O)CN(C)C(=O)CN(C)C(=O)CN(C)C(=O)CN(C)C(=O)CN(C)C(=O)CN(C)C(=O)CN(C)C(=O)CN(C)C(=O)CN(C)C(=O)CN(C)C(=O)CC[C@H](NC(=O)CC[C@H](NC(=O)CC[C@H](NC(=O)CCCCCCCCCCCCCCCCCCC(=O)O)C(=O)O)C(=O)O)C(=O)O)CC1)C(=O)N[C@@H](CCCN)C(=O)N1CCC[C@H]1C(=O)N[C@@H](CCCNC(=N)N)C(=O)NCC(N)=O [Compound 1, C20DA-gGlu3-Sar15-AEPipAc-Tyr-Phe-NMeLeu-Nle-Orn-Pro-Arg-Gly-NH2] (HELM PEPTIDE1{[O=C(O)CCCCCCCCCCCCCCCCCCC(=O)[*:2]].[gGlu].[gGlu].[gGlu].[Sar].[Sar].[Sar].[Sar].[Sar].[Sar].[Sar].[Sar].[Sar].[Sar].[Sar].[Sar].[Sar].[Sar].[Sar].[O=C(CN1CCN(CCN[*:1])CC1)[*:2]].Y.F.[meL].[Nle].[Orn].P.R.G.[am]}$$$$V2.0)	1.4	635	2.8	38.1	38.1	890
CCCC[C@H](NC(=O)[C@H](CC(C)C)N(C)C(=O)[C@H](Cc1ccccc1)NC(=O)[C@H](Cc1ccc(O)cc1)NC(=O)CN1CCN(CCNC(=O)CN(C)C(=O)CN(C)C(=O)CN(C)C(=O)CN(C)C(=O)CN(C)C(=O)CN(C)C(=O)CN(C)C(=O)CN(C)C(=O)CN(C)C(=O)CN(C)C(=O)CN(C)C(=O)CN(C)C(=O)CN(C)C(=O)CN(C)C(=O)CN(C)C(=O)CC[C@H](NC(=O)CC[C@H](NC(=O)CC[C@H](NC(=O)CCCCCCCCCCCCCCCCC(=O)O)C(=O)O)C(=O)O)C(=O)O)CC1)C(=O)N[C@@H](CCCNC(=N)N)C(=O)N1CCC[C@H]1C(=O)N[C@@H](CCCNC(=N)N)C(=O)NCC(N)=O [Compound 7, C18DA-gGlu3-Sar15-AEPipAc-Tyr-Phe-NMeLeu-Nle-Arg-Pro-Arg-Gly-NH2] (HELM PEPTIDE1{[O=C(O)CCCCCCCCCCCCCCCCC(=O)[*:2]].[gGlu].[gGlu].[gGlu].[Sar].[Sar].[Sar].[Sar].[Sar].[Sar].[Sar].[Sar].[Sar].[Sar].[Sar].[Sar].[Sar].[Sar].[Sar].[O=C(CN1CCN(CCN[*:1])CC1)[*:2]].Y.F.[meL].[Nle].R.P.R.G.[am]}$$$$V2.0)	1.2	208	4.4	17.4	17.4	250
CCCC[C@H](NC(=O)[C@H](CC(C)C)N(C)C(=O)[C@H](Cc1ccccc1)NC(=O)[C@H](Cc1ccc(O)cc1)NC(=O)CN1CCN(CCNC(=O)CN(C)C(=O)CN(C)C(=O)CN(C)C(=O)CN(C)C(=O)CN(C)C(=O)CN(C)C(=O)CN(C)C(=O)CN(C)C(=O)CN(C)C(=O)CN(C)C(=O)CN(C)C(=O)CN(C)C(=O)CN(C)C(=O)CN(C)C(=O)CN(C)C(=O)CC[C@H](NC(=O)CC[C@H](NC(=O)CC[C@H](NC(=O)CCCCCCCCCCCCCCCCC(=O)O)C(=O)O)C(=O)O)C(=O)O)CC1)C(=O)N[C@@H](CCN)C(=O)N1CCC[C@H]1C(=O)N[C@@H](CCCNC(=N)N)C(=O)NCC(N)=O [Compound 26, C18DA-gGlu3-Sar15-AEPipAc-Tyr-Phe-NMeLeu-Nle-Dbu-Pro-Arg-Gly-NH2] (HELM PEPTIDE1{[O=C(O)CCCCCCCCCCCCCCCCC(=O)[*:2]].[gGlu].[gGlu].[gGlu].[Sar].[Sar].[Sar].[Sar].[Sar].[Sar].[Sar].[Sar].[Sar].[Sar].[Sar].[Sar].[Sar].[Sar].[Sar].[O=C(CN1CCN(CCN[*:1])CC1)[*:2]].Y.F.[meL].[Nle].[Dab].P.R.G.[am]}$$$$V2.0)	1.5	–	3.9	–	12.4	> 1000
CCCC[C@H](NC(=O)[C@H](CC(C)C)N(C)C(=O)[C@H](Cc1ccccc1)NC(=O)[C@H](Cc1ccc(O)cc1)NC(=O)CN1CCN(CCNC(=O)CN(C)C(=O)CN(C)C(=O)CN(C)C(=O)CN(C)C(=O)CN(C)C(=O)CN(C)C(=O)CN(C)C(=O)CN(C)C(=O)CN(C)C(=O)CN(C)C(=O)CN(C)C(=O)CN(C)C(=O)CN(C)C(=O)CN(C)C(=O)CN(C)C(=O)CC[C@H](NC(=O)CC[C@H](NC(=O)CC[C@H](NC(=O)CCCCCCCCCCCCCCCCCCC(=O)O)C(=O)O)C(=O)O)C(=O)O)CC1)C(=O)N[C@@H](CCN)C(=O)N1CCC[C@H]1C(=O)N[C@@H](CCCNC(=N)N)C(=O)NCC(N)=O [Compound 42, C20DA-gGlu3-Sar15-AEPipAc-Tyr-Phe-NMeLeu-Nle-Dbu-Pro-Arg-Gly-NH2] (HELM PEPTIDE1{[O=C(O)CCCCCCCCCCCCCCCCCCC(=O)[*:2]].[gGlu].[gGlu].[gGlu].[Sar].[Sar].[Sar].[Sar].[Sar].[Sar].[Sar].[Sar].[Sar].[Sar].[Sar].[Sar].[Sar].[Sar].[Sar].[O=C(CN1CCN(CCN[*:1])CC1)[*:2]].Y.F.[meL].[Nle].[Dab].P.R.G.[am]}$$$$V2.0)	3.2	–	5.8	–	31.2	1500
CCCC[C@H](NC(=O)[C@H](CC(C)C)N(C)C(=O)[C@H](Cc1ccccc1)NC(=O)[C@H](Cc1ccc(O)cc1)NC(=O)CN1CCN(CCNC(=O)CN(C)C(=O)CN(C)C(=O)CN(C)C(=O)CN(C)C(=O)CN(C)C(=O)CN(C)C(=O)CN(C)C(=O)CN(C)C(=O)CN(C)C(=O)CN(C)C(=O)CN(C)C(=O)CN(C)C(=O)CN(C)C(=O)CN(C)C(=O)CN(C)C(=O)CC[C@H](NC(=O)CC[C@H](NC(=O)CC[C@H](NC(=O)CCCCCCCCCCCCCCCCCCC(=O)O)C(=O)O)C(=O)O)C(=O)O)CC1)C(=O)N[C@@H](CCN)C(=O)N(C)[C@@H](C)C(=O)N[C@@H](CCCNC(=N)N)C(=O)NCC(N)=O [Compound 43, C20DA-gGlu3-Sar15-AEPipAc-Tyr-Phe-NMeLeu-Nle-Dbu-NMeAla-Arg-Gly-NH2] (HELM PEPTIDE1{[O=C(O)CCCCCCCCCCCCCCCCCCC(=O)[*:2]].[gGlu].[gGlu].[gGlu].[Sar].[Sar].[Sar].[Sar].[Sar].[Sar].[Sar].[Sar].[Sar].[Sar].[Sar].[Sar].[Sar].[Sar].[Sar].[O=C(CN1CCN(CCN[*:1])CC1)[*:2]].Y.F.[meL].[Nle].[Dab].[meA].R.G.[am]}$$$$V2.0)	3.9	–	10.1	–	37.7	> 1000
